Data from ChEMBL document CHEMBL1201862, “PubChem BioAssay data set” (2004).
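Each compound was tested at five concentrations against cells in 96-well plates for 48 hours. GI50 marks 50% less growth.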 Calls of active or inactive are those of the source. Rule as the data show it: active = GI50 up to about 1.1 µM and inactive = higher.

Assays:
Assay in all cases: inhibition of tumour cell growth, NCI panel, 48 h
A498 = system: A498
DU-145 = system: DU-145
HOP-92 = system: HOP-92
Hs-578T = system: Hs-578T
K562 = system: K562
KM12 = system: KM12
MDA-MB-231 = system: MDA-MB-231
MOLT-4 = system: MOLT-4
NCI-H460 = system: NCI-H460
OVCAR-3 = system: OVCAR-3
OVCAR-5 = system: OVCAR-5
OVCAR-8 = system: OVCAR-8
SF-268 = system: SF-268
SK-MEL-2 = system: SK-MEL-2
SK-OV-3 = system: SK-OV-3
SN12C = system: SN12C
SNB-19 = system: SNB-19
SR = system: SR
HL-60 = system: HL-60

Measured: GI50

O=c1oc2ccccc2cc1-c1cn2ccccc2n1
inactive: A498 2.24 µM | DU-145 7.82 µM | HOP-92 16.6 µM | Hs-578T 4.5 µM | K562 10.2 µM | KM12 10.5 µM | MDA-MB-231 6.4 µM | MOLT-4 18.6 µM | NCI-H460 4.16 µM | OVCAR-3 4.16 µM | OVCAR-5 21.7 µM | OVCAR-8 3.21 µM | SF-268 2.96 µM | SK-MEL-2 5 µM | SK-OV-3 4.01 µM | SN12C 4.6 µM | SNB-19 3.32 µM | SR 3.85 µM

O=C(O)CCn1cnc2c(S)ncnc21
inactive: A498 > 100 µM | DU-145 > 100 µM | HL-60 > 100 µM | Hs-578T > 100 µM | K562 > 100 µM | KM12 > 100 µM | MDA-MB-231 > 100 µM | MOLT-4 > 100 µM | NCI-H460 > 100 µM | OVCAR-3 > 100 µM | OVCAR-5 > 100 µM | OVCAR-8 > 100 µM | SF-268 > 100 µM | SK-MEL-2 > 100 µM | SK-OV-3 > 100 µM | SN12C > 100 µM | SNB-19 > 100 µM | SR > 100 µM

N#Cc1nn(C2OC(COC(=O)c3ccccc3)C(OC(=O)c3ccccc3)C2OC(=O)c2ccccc2)c2nc[nH]c(=O)c12 (stereo not drawn)
inactive: A498 11.4 µM | DU-145 42.7 µM | HL-60 34 µM | Hs-578T 80.9 µM | K562 35.7 µM | MDA-MB-231 58.3 µM | MOLT-4 36.6 µM | NCI-H460 30.4 µM | OVCAR-3 46 µM | OVCAR-5 > 100 µM | OVCAR-8 27.8 µM | SF-268 43.1 µM | SK-MEL-2 85.5 µM | SK-OV-3 5.57 µM | SN12C 77.4 µM | SNB-19 72.8 µM | SR 30.9 µM

CC(=O)OC(Cc1c(O)c2c(C)cccc2oc1=O)C(C)(C)O (stereo not drawn)
inactive: A498 > 100 µM | DU-145 > 100 µM | HL-60 72.6 µM | Hs-578T > 100 µM | K562 > 100 µM | KM12 > 100 µM | MDA-MB-231 > 100 µM | MOLT-4 46.8 µM | NCI-H460 > 100 µM | OVCAR-3 > 100 µM | OVCAR-5 > 100 µM | OVCAR-8 > 100 µM | SF-268 91.4 µM | SK-MEL-2 > 100 µM | SK-OV-3 > 100 µM | SN12C > 100 µM | SNB-19 > 100 µM | SR 55.1 µM

Nc1ccc(S(=O)(=O)C23CC4CC(CC(C4)C2)C3)cc1
inactive: A498 23.1 µM | DU-145 78 µM | HL-60 27.2 µM | Hs-578T > 100 µM | K562 89.5 µM | KM12 > 100 µM | MDA-MB-231 > 100 µM | NCI-H460 74.3 µM | OVCAR-3 77.8 µM | OVCAR-5 > 100 µM | OVCAR-8 > 100 µM | SF-268 > 100 µM | SK-MEL-2 > 100 µM | SK-OV-3 > 100 µM | SN12C > 100 µM | SNB-19 > 100 µM | SR 61.7 µM

CCCNC(=O)c1cc(NC(=O)c2cc(NC(=O)CCS(=O)(=O)OC)cn2C)cn1C
inactive: A498 > 69.3 µM | DU-145 24.2 µM | HOP-92 3.76 µM | Hs-578T 32.7 µM | K562 5.2 µM | KM12 21.9 µM | MDA-MB-231 33.8 µM | MOLT-4 17.5 µM | NCI-H460 > 100 µM | OVCAR-3 10.4 µM | OVCAR-5 40.9 µM | OVCAR-8 15.2 µM | SK-MEL-2 18.3 µM | SK-OV-3 9.55 µM | SN12C 13.8 µM | SNB-19 2.21 µM | SR > 100 µM

C=C(C)COC1CCCCO1 (stereo not drawn)
inactive: A498 > 100 µM | DU-145 > 100 µM | HL-60 > 100 µM | Hs-578T > 100 µM | K562 41.6 µM | KM12 > 100 µM | MDA-MB-231 > 100 µM | MOLT-4 > 100 µM | NCI-H460 > 100 µM | OVCAR-3 > 100 µM | OVCAR-5 > 100 µM | OVCAR-8 > 100 µM | SF-268 > 100 µM | SK-MEL-2 > 100 µM | SK-OV-3 > 100 µM | SN12C > 100 µM | SNB-19 > 100 µM | SR > 10 µM

O=C(CNC(=O)c1ccccc1)Oc1c(Cl)c(Cl)c(Cl)c(Cl)c1Cl
inactive: DU-145 23.4 µM | HL-60 24.6 µM | Hs-578T 24.9 µM | K562 28.2 µM | KM12 22.4 µM | MDA-MB-231 22.9 µM | MOLT-4 29 µM | NCI-H460 38.5 µM | OVCAR-3 25.4 µM | OVCAR-5 47.2 µM | OVCAR-8 22.1 µM | SF-268 40.6 µM | SK-MEL-2 21 µM | SK-OV-3 72.4 µM | SN12C 32.1 µM | SNB-19 44.9 µM | SR 32.4 µM

COc1ccccc1Nc1nc(NNC(=O)Cc2ccccc2)nc(NNC(=O)c2ccncc2)n1
inactive: DU-145 > 10 µM | HL-60 > 10 µM | HOP-92 > 10 µM | Hs-578T 9.04 µM | K562 > 10 µM | KM12 > 10 µM | MDA-MB-231 > 10 µM | MOLT-4 > 10 µM | NCI-H460 > 10 µM | OVCAR-8 > 10 µM | SF-268 > 10 µM | SK-OV-3 > 10 µM | SN12C > 10 µM | SR > 10 µM

C#CC(O)Cc1ccc(OC)c2occc12 (stereo not drawn)
inactive: A498 > 100 µM | DU-145 > 100 µM | HOP-92 > 100 µM | Hs-578T > 100 µM | K562 > 100 µM | KM12 > 100 µM | MDA-MB-231 > 100 µM | NCI-H460 > 100 µM | OVCAR-3 > 100 µM | OVCAR-5 > 100 µM | OVCAR-8 > 100 µM | SF-268 > 100 µM | SK-MEL-2 > 100 µM | SK-OV-3 > 100 µM | SN12C > 100 µM | SNB-19 > 100 µM | SR > 100 µM

COc1ccc(-c2cc(O)c3cc(OC)c(OC)cc3n2)cc1OC
inactive: A498 > 100 µM | DU-145 > 100 µM | HOP-92 64.4 µM | Hs-578T 69.8 µM | K562 > 100 µM | KM12 > 100 µM | MDA-MB-231 > 100 µM | MOLT-4 > 100 µM | NCI-H460 > 100 µM | OVCAR-3 > 100 µM | OVCAR-5 > 100 µM | OVCAR-8 > 100 µM | SF-268 > 100 µM | SK-OV-3 > 100 µM | SN12C > 100 µM | SNB-19 > 100 µM | SR > 100 µM

O=C1/C(=C/c2ccc(Cl)cc2)Oc2ccccc21
inactive: DU-145 19.7 µM | HL-60 > 100 µM | Hs-578T 18.7 µM | K562 > 100 µM | KM12 32.4 µM | MDA-MB-231 > 100 µM | MOLT-4 55.6 µM | NCI-H460 26.4 µM | OVCAR-3 > 100 µM | OVCAR-8 29.9 µM | SF-268 51.6 µM | SK-OV-3 > 100 µM | SN12C 96.8 µM | SNB-19 37 µM | SR 51.2 µM
